# From EP1863471B9, “USE OF ANGELIC ACID ESTERS AS AN ANTIPHLOGISTIC ACTIVE INGREDIENT AND ANTIPHLOGISTIC PREPARATIONS” (Miltitz Aromatics GmbH, priority 2005, dated 2006)
# Like-named read-outs stand apart in the source and are kept apart here.
# How the values were obtained:
# [1] = system: Carrageenin-induzierten Rattenpfotenödem; assay: Carrageenin-induced rat paw oedema, oral administration of test substance; assay type: in vivo, Ratte; conditions: for ED50: oral administration, calculated from dose-dependent percent inhibition of oedema development, own tests
# Source text: Die antiinflammatorische Wirkung von Isobutylangelat wurde am Carrageenin-induzierten ([…]) Rattenpfotenödem getestet. Isobutylangelat wurde oral verabreicht.
# Die Testbedingungen entsprachen den in der Literatur verwendeten, so dass Quervergleiche hergestellt werden konnten. (V. Jakovlev et al. in Journal of Medicinal Plant Research 35 (1979), 125-140).
# Als Vergleichssubstanz in den eigenen Tests diente (-)-alpha-Bisabolol. Dosisabhängig wurde die prozentuale Hemmung der Ödementwichlung bestimmt. Daraus ließ sich der ED50 Wert errechnen.
# Dosierungen von 100, 464, 1000 und 2150 mg Isobutylangelat/kg Körpergewicht wurden getestet. Die Ergebnisse wurden mit den für eine Kontrollgruppe (0,8 % Hydroxypropylmethylcellulose Gel) und zusätzlich den für die positive Kontrolle ((-)-alpha- Bisabolol) erhaltenen Werten verglichen.
# [2] = system: Carrageenin-induzierten Rattenpfotenödem; conditions: literature values from V. Jakovlev et al., Journal of Medicinal Plant Research 35 (1979), 125-140, corresponding test conditions, cited from earlier work
SMILES,ED50 [2],further results
CC(C)=CCC[C@](C)(O)[C@@H]1CC=C(C)CC1 [(-)-alpha-Bisabolol],,ED50 [1]: 1540 mg/kg; ED50 ([2]; listed as (-) alpha Bisabolol): 1465 mg/kg
CC1=CCC(C2(C)CCC(C(C)(C)O)O2)CC1 (stereo not drawn) [Bisabololoxid B],> 2000 mg/kg,
C/C=C(/C)C(=O)OCC(C)C [Isobutylangelat],,"ED50 [1]: 2310 mg/kg; minimal effective dose ([1]; oral, doses tested 100, 464, 1000 and 2150 mg/kg body weight, read-out: dosisabhängige antiinflammatorische Wirkung, beginnend bei): ≥ 100 mg/kg"
CC(C)=CCC[C@@](C)(O)[C@H]1CC=C(C)CC1 [(+) alpha Bisabolol],> 2000 mg/kg,
CC1=CC[C@@H]([C@]2(C)CCC(=O)C(C)(C)O2)CC1 [Bisabolonoxid],> 2000 mg/kg,
CC1=CCC(C2(C)CCC(O)C(C)(C)O2)CC1 (stereo not drawn) [Bisabololoxid A],3164 mg/kg,
CC(C)=CCC[C@](C)(O)[C@@H]1CC=C(C)CC1 [Dragosantol],> 3000 mg/kg,
